Like-named read-outs stand apart in the source and are kept apart here. Values belong to the compound of their own block, whether it stands above or below them.
Columns and labels:
[1] = system: Thymidine phosphorylase (TP); assay: Thymidine phosphorylase (TP) enzyme activity in skin sample supernatant; conditions: concentration of 100 uM; 200 μM capecitabine substrate
Experimental: Skin samples were suspended in 600 μl of homogenization buffer containing 20 mM potassium phosphate (pH 8.0), 1.5 mM dithiothreitol (DTT), and 5 ul/ml protease inhibitor (Sigma). Samples were homogenized and centrifuged at 36,000 rpm for one hour at 4° C. The supernatants were collected and protein concentration was measured using the Bradford assay (Biorad). Thymidine phosporylase (TP) enzyme activity was determined in an assay mixture containing 20 mM potassium phosphate (pH 8.0), 1 mM DTT, 1 mM EDTA, 2 μM 6-^3H-Capecitabine (Moravek Biochemicals, Brea, Calif.), 200 μM unlabeled Capecitabine, varying concentrations of the inhibitor (100 μM, 10 μM, or 1 μM), and 80 μl of protein (6.0 mg/ml) in a final volume of 160 μl. Reactions were incubated at 37° C. for 30 minutes and then terminated by boiling for four minutes. To facilitate protein precipitation, the reactions were incubated at −80° C. for at least 20 minutes, thawed, and then centrifuged for 10 minutes at 14000 rpm at 4° C. The resulting supernatants were filtered through a 0.2 μm Acrodisc filter (VWR International, West Chester, Pa.) and samples were injected in duplicate (60 μl each) onto a HPLC (Hewlett-Packard 1050, Houston, Tex.) equipped with an automatic injector and on-line radioisotope flow detector (Radiomatic FLO-ONE Beta, Packard Instrument, Meriden, Conn.). […]

[2] = Plasma eniluracil after topical administration in pigs (Example 6); assay type: in vivo
Experimental: (§1) This study was carried out to determine the plasma pharmacokinetics of eniluracil (EU) after topical administration and to evaluate the effect of topical eniluracil application on 5-FU pharmacokinetics, peripheral blood mononuclear cell (PBMC) dihydropyrimidine dehydrogenase (DPD) function, and levels of DPD activity in the skin in vivo. Eniluracil (0.005% and 0.01% w/w) formulated using Aquaphor® was applied topically (617 mg to a designated area) for 5 minutes every other day for 16 days starting on Day-2. 5-Fluorouracil was administered as a 6 mg/kg bolus injection on Day-3, Day 0 and Day 14. Samples were collected at predetermined time intervals to evaluate 5-fluorouracil pharmacokinetics, eniluracil pharmacokinetics, skin DPD activity and systemic DPD activity.
(§2) A baseline 5-FU pharmacokinetic study was conducted on Day-3 by collecting serial blood samples after 5-FU administration. […] The total ointment applied was […]. The area of application in the pig ([…]=0.0040 m^2) was selected based on feasibility and scale to the proposed human use using the following figures: the surface area of one palm and one sole combined in a human is 2% of the total body surface area, the average total body surface area in a pig is 0.40 m^2. Thus, in terms of total eniluracil in mg/m^2 applied to pigs was 0.154 for 0.01% and 0.077 for 0.005%. The duration of application was 5 minutes, which was determined based data obtained from a pilot study. In this study, higher doses of topical eniluracil (5 gms of 0.01%, 0.05% and 0.01% w/w) and placebo were applied on the skin and skin biopsies were collected after predefined time intervals. These samples were then analyzed for DPD activity.
Ointment exposure time was 5 minutes every other day for 16 days. Eniluracil treated animals also received 617 mg of placebo at a site different from the treatment site. Eniluracil pharmacokinetics were analyzed from the serial blood samples drawn on first day of the 5-FU and eniluracil treatment (Day 0) and on Day 14. In addition, eniluracil concentrations were evaluated in all samples obtained for 5-FU pharmacokinetics, as shown above. 5-FU pharmacokinetics were evaluated from 11 serial blood samples drawn after the IV bolus administration of 5-FU on Day-3, Day 0 and Day 14. […] The effect on the local DPD activity and the effect of topical eniluracil on systemic DPD activity were assessed by collecting skin biopsies from both the treatment site and the placebo site, and peripheral blood mononuclear cells (PBMCs) on day-2 and on day 12. DPD activity in PBMCs was also measured on Day 17 and Day 19, to investigate the time to recovery if there was any systemic inhibition of DPD.

[3] = system: EpiDerm™ skin model (normal, human-derived epidermal keratinocytes (NHEK)); assay: EpiDerm skin model MTT conversion assay (ET50, dermal irritation); assay type: cell-based; conditions: for ET50: exposure times 8, 20, 24 hours
Description: The EpiDerm™ skin model system (MatTek) was used to assess the potential dermal irritation of eniluracil alone or its formulation. This system consists of normal, human-derived epidermal keratinocytes (NHEK) which have been cultured to form a multilayered, highly differentiated model of the human epidermis. […] The EpiDerm™ system is mitotically and metabolically active. Markers of mature epidermis-specific differentiation such as pro-filaggrin, the K1/K10 cytokeratin pair, involucrin, and type I epidermal transglutaminase have been localized in the model. […] Eniluracil was prepared and administered to the test system at the three final concentrations of 1000 μM, 500 μM, and 100 μM, and tested at three exposure times of 8, 20, and 24 hours. The DMSO solvent control was tested at exposure times of 8 and 24 hours. The negative control was tested at exposure times of 4 and 24 hours, and the positive control was tested at exposure times of 4 and 8 hours. […] Hydrochloric acid in an amount equivalent to the sodium hydroxide was added to neutralize the ointment. The exposure time control was also exposed in duplicate for 4 and 24 hours. Table 2 below summarizes the ET50 results of the EpiDerm™ assay for the test articles and the positive control, using the negative control results to determine the relative viability.

[4] = pH of test article in the EpiDerm studies; assay type: physicochemical
[5] = target: T1, dihydropyrimidine dehydrogenase (DPD) (Sus scrofa, UniProt Q28943); assay: Skin DPD activity in pigs with topical eniluracil (Example 6); assay type: in vivo; conditions: short term topical application at 0.005% or 0.01% w/w
T1 construct: the supernatant (cytosolic fraction) was collected for use as the enzyme source; from tissue; host or cells: pig skin biopsies after topical dosing in vivo
T1 sequence (Q28943 4-1025): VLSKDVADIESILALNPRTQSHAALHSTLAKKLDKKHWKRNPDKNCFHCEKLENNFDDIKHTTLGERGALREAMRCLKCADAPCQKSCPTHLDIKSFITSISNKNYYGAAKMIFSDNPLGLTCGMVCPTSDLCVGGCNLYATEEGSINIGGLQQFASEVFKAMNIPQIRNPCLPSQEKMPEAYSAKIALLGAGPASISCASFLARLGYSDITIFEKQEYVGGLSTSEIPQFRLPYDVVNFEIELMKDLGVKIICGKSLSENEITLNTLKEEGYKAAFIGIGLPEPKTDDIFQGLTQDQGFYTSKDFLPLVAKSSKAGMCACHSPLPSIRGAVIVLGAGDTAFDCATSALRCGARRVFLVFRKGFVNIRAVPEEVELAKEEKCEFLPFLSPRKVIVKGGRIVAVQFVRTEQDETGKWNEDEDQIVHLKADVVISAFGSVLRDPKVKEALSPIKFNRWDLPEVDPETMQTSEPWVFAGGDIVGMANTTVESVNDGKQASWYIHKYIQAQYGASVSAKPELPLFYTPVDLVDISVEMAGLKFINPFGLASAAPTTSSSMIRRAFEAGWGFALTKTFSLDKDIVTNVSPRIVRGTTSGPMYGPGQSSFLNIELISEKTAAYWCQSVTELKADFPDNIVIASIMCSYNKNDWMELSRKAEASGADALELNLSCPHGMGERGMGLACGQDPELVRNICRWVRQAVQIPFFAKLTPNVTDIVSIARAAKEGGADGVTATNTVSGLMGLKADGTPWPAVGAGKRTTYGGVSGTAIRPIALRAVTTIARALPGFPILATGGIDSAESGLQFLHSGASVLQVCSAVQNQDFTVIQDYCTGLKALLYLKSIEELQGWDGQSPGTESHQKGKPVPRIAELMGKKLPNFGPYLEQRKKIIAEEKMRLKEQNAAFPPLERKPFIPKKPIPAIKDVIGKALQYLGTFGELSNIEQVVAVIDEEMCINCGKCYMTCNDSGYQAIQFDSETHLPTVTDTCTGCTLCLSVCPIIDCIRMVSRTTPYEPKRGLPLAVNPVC
Experimental: as §1, with “Samples were collected at predetermined time intervals to evaluate 5-fluorouracil pharmacokinetics, eniluracil pharmacokinetics, skin DPD activity and systemic DPD activity.” left out
A baseline 5-FU pharmacokinetic study was conducted on Day-3 by collecting serial blood samples after 5-FU administration. […] The duration of application was 5 minutes, which was determined based data obtained from a pilot study. […] These samples were then analyzed for DPD activity.
Ointment exposure time was 5 minutes every other day for 16 days. […] Eniluracil pharmacokinetics were analyzed from the serial blood samples drawn on first day of the 5-FU and eniluracil treatment (Day 0) and on Day 14. In addition, eniluracil concentrations were evaluated in all samples obtained for 5-FU pharmacokinetics, as shown above. 5-FU pharmacokinetics were evaluated from 11 serial blood samples drawn after the IV bolus administration of 5-FU on Day-3, Day 0 and Day 14. […]

[6] = 5-FU pharmacokinetics in pigs with topical eniluracil (Example 6); assay type: in vivo; conditions: pig, plasma, 6 mg/kg, 5-FU 6 mg/kg bolus, read-out: 5-FU Half-Life, Mean (SD)
Experimental: as §1, §2
Ointment exposure time was 5 minutes every other day for 16 days. Eniluracil treated animals also received 617 mg of placebo at a site different from the treatment site. Eniluracil pharmacokinetics were analyzed from the serial blood samples drawn on first day of the 5-FU and eniluracil treatment (Day 0) and on Day 14. In addition, eniluracil concentrations were evaluated in all samples obtained for 5-FU pharmacokinetics, as shown above. 5-FU pharmacokinetics were evaluated from 11 serial blood samples drawn after the IV bolus administration of 5-FU on Day-3, Day 0 and Day 14. On 5-FU treatment days, eniluracil administration was conducted first (5 min) followed by 5-FU at the 6 minute time point. Blood samples were collected for plasma EU analyses prior to topical administration and at 2 min and 5 min (end of topical exposure). Blood samples were collected for both EU and 5-FU analyses immediately prior to 5-FU administration and at the following times from the IV bolus: 2, 5, 10, 15, 30, 45, 60, 90 120, and 180 min. Determinations of eniluracil and 5-fluorouracil plasma pharmacokinetics were made. The effect on the local DPD activity and the effect of topical eniluracil on systemic DPD activity were assessed by collecting skin biopsies from both the treatment site and the placebo site, and peripheral blood mononuclear cells (PBMCs) on day-2 and on day 12. DPD activity in PBMCs was also measured on Day 17 and Day 19, to investigate the time to recovery if there was any systemic inhibition of DPD.
In terms of statistical considerations, the study was designed with 4 pigs to a treatment group in order to have 80% power for observation of at least a 40% difference in 5-FU systemic exposure between measurements conducted on day-3 (no eniluracil) to day 14 (on eniluracil every other day since day-2) at each of the two dosing levels (4 animals per dose level). These evaluations were conducted using matched, paired T Tests and Wilcoxon tests. In addition, day 14 data were compared between the treatment vs. control groups using the Kiruskal-Wallis test. […]

[7] = capecitabine at labeled dose; cited from earlier work

Structure (SMILES): Cc1cn([C@H]2C[C@H](O)[C@@H](CO)O2)c(=O)[nH]c1=O [thymidine]
inhibition of TP activity [1]: about 50%

plasma EU concentration ([2]; 221 of the 224 samples, limit of quantitation, topical 0.005% or 0.01% w/w, 5 minutes every other day): ≤ 11 ng/mL
plasma EU concentration ([2]; pig 5303, EU dose 0.005%, day 14, 6 min): 12.81 ng/mL
plasma EU concentration ([2]; pig 5303, EU dose 0.005%, day 14, 11 min): 11.52 ng/mL
plasma EU concentration ([2]; pig 5303, EU dose 0.005%, day 14, 15 min): 11.07 ng/mL
pH ([4]; eniluracil 100 uM): 5
pH ([4]; eniluracil 500 uM): 5
pH ([4]; eniluracil 1000 uM): 5
effect on skin DPD activity [5]: temporary and recoverable inhibition
Structure (SMILES): C#Cc1c[nH]c(=O)[nH]c1=O [Eniluracil, eniluracil]
tolerability in EpiDerm skin model ([3]; 1000, 500 and 100 μM, topical exposures of up to 24 hours): well-tolerated
ET50 ([3]; eniluracil 100 uM): >24 h
ET50 ([3]; eniluracil 500 uM): >24 h
ET50 ([3]; eniluracil 1000 uM): >24 h

Structure (SMILES): O=c1ccn([C@@H]2O[C@H](CO)[C@@H](O)[C@H]2O)c(=O)[nH]1 [uridine]
inhibition of TP activity [1]: about 50%

half-life ([6]; iv, Both Doses of eniluracil ointment, Day 0): 10.1 min
half-life ([6]; iv, Both Doses of eniluracil ointment, Day 14): 9.77 min
half-life ([6]; iv, Controls (no ointment), Day 0): 7.56 min
half-life ([6]; iv, Controls (no ointment), Day 14): 9.74 min
half-life ([6]; iv, Controls (no ointment), Day −3): 5.51 min
half-life ([6]; iv, eniluracil ointment Dose 0.005%, Day 0): 6.98 min
half-life ([6]; iv, eniluracil ointment Dose 0.005%, Day 14): 6.7 min
half-life ([6]; iv, eniluracil ointment Dose 0.01%, Day 0): 13.2 min
half-life ([6]; iv, eniluracil ointment Dose 0.01%, Day 14): 12.8 min
half-life ([6]; topical or ocular, Both Doses of eniluracil ointment, Day −3 (no topical eniluracil)): 5.11 min
half-life ([6]; topical or ocular, eniluracil ointment Dose 0.005% group, Day −3 (no topical eniluracil)): 5.44 min
half-life ([6]; topical or ocular, eniluracil ointment Dose 0.01% group, Day −3 (no topical eniluracil)): 4.78 min
Structure (SMILES): O=c1[nH]cc(F)c(=O)[nH]1 [5-FU, 5-Fluorouracil]

Structure (SMILES): CCCCCOC(=O)Nc1nc(=O)n([C@@H]2O[C@H](C)[C@@H](O)[C@H]2O)cc1F [capecitabine, 5′-deoxy-5-fluoro-N-[(pentyloxy)carbonyl]-cytidine]
reported incidence of HFS, all grades [7]: approximately 60%
reported incidence of HFS, high grade [7]: ~17%
